Experimental data published in ChEMBL document CHEMBL1201862, “PubChem BioAssay data set” (2004).
Activity calls are given as the source filed them.

Key:
[1] = A Cell Based Secondary Assay To Explore Cytotoxicity of Compounds that Sensitize Mycobacterium Tuberculosis to Beta-Lactam Antibiotics.; type: functional
[2] = target: T1, Methionyl-tRNA synthetase, putative (Trypanosoma brucei brucei, UniProt Q38C91); type: functional, Trypanosoma brucei brucei strain 927/4 GUTat10.1
T1 sequence (Q38C91 whole entry): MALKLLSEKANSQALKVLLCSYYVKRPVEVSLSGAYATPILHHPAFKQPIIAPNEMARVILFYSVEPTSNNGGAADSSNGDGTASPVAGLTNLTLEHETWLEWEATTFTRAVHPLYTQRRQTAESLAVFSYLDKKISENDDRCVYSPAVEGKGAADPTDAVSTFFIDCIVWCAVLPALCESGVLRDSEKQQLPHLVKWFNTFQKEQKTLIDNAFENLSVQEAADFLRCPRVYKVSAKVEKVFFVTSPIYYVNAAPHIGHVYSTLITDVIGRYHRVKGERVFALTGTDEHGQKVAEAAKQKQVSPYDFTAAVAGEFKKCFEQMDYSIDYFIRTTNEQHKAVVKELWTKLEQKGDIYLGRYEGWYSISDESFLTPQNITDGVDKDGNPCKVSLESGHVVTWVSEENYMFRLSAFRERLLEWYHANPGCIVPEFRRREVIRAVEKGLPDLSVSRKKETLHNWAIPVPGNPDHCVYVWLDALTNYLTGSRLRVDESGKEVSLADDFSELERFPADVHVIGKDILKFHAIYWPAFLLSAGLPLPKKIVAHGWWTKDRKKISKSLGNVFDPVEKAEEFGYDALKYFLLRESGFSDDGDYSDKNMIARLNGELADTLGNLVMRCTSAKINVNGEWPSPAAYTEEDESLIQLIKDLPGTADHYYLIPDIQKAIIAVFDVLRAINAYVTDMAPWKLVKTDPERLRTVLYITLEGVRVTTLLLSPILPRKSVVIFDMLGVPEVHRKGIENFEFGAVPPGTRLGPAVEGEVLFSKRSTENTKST

H4 = test: Luminescence Cell-Based Dose Response HTS to Identify Activators of 5'UTR Stem-Loop Driven Prion Protein mRNA Translation in H4 Neuroglioblastoma Cells. [Related pubchem assays: 1829 (Project Summary), 1814 (Primary HTS)]; type: functional; conditions: Homo sapiens
[3] = Luminescence Cell-Based Dose Confirmation HTS to Identify Activators of 5'UTR Stem-Loop Driven Alpha-Synuclein mRNA Translation in H4 Neuroglioblastoma Cells. [Related pubchem assays: 1829 (Project Summary), 1814 (Primary HTS)]; type: functional
[4] = target: Dual specificity tyrosine-phosphorylation-regulated kinase 1A (Rattus norvegicus, UniProt Q63470); type: biochemical, Homo sapiens
[5] = Luminescence Cell-Based Dose Response HTS to Identify Activators of Luciferase Translation or Activity in H4 […] Cells. [Related pubchem assays: 1829 (Project Summary), 1814 (Primary HTS)]; type: functional
[6] = target: Protein-tyrosine kinase 2-beta (Homo sapiens, UniProt Q14289);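 note: potency of inhibitors of PYK2 kinase phosphorylation of poly-GT substrate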
[7] = target: T1, Methionyl-tRNA synthetase, putative; type: functional, Trypanosoma brucei brucei strain 927/4 GUTat10.1; remark: listed apart in the source
[8] = Counterscreen for inhibitors of Trypanosoma brucei methionyl tRNA synthetase (MetRS): Luminescence-based cell-based high throughput dose response assay to identify compounds that are cytotoxic to Jurkat human T lymphocyte cells.; type: functional
[9] = target: T2, Mannose-6-phosphate isomerase (Homo sapiens, UniProt P34949); test: MPI inhibition at elevated mannose 6-phosphate – biochemical, fluorescence intensity, high mannose 6-phosphate, primary screen (AID 1220)
T2 sequence (P34949 whole entry): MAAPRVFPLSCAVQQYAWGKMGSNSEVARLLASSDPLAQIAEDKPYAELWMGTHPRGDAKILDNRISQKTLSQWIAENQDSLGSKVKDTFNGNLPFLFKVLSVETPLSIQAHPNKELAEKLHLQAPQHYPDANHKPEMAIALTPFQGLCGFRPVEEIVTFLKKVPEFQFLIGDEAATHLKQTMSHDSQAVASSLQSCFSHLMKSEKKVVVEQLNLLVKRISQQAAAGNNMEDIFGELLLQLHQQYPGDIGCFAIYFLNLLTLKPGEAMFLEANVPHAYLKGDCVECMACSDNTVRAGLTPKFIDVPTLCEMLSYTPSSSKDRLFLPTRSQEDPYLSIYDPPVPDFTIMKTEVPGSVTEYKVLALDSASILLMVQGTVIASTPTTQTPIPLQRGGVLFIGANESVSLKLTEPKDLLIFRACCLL

Cytochrome P450 3A4 = Cytochrome P450 3A4 (Homo sapiens, UniProt P08684); conditions: Potency;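 note: confirmatory qHTS run detecting inhibitors and substrates of CYP3A4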
Cytochrome P450 2C9 = Cytochrome P450 2C9 (Homo sapiens, UniProt P11712); conditions: Potency
[10] = HIV-1 Vif–A3G interaction blockers – biochemical, TR-FRET, GST-Vif 1-94, biotin-A3G peptide, dose response retest, primary screen (AID 1117319); type: functional;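 note: TR-FRET signal of purified GST-Vif binding a biotinylated A3G peptide; inhibitors lower the FRET signal by blocking Vif and A3G binding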
[11] = reduced cellular PGC1a acetyl-lysine signal – cell-based, cherry-picked samples, dose response (AID 720514); type: functional;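 note: potency may reflect raised or lowered acetylation signal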
[12] = fluconazole-exposed Candida albicans growth modulators – fluorescence, retest, confirmation (AID 2467); type: functional, cell-based
[13] = NIH-3T3 fibroblast cytotoxicity, dose response, cytotoxicity control, cell-based, fluorescence, Alamar Blue, secondary assay (AID 2327); type: functional;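 note: NIH-3T3 mouse fibroblasts cultured with fluconazole at 8 µg/mL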
Caspase-6 = target: T3, Caspase-6 (Homo sapiens, UniProt P55212); test: inhibition of CASP6 peptide cleavage – biochemical, VEID-R110 fluorescence, cherry-pick, dose response (AID 720632)
T3 sequence (P55212 whole entry): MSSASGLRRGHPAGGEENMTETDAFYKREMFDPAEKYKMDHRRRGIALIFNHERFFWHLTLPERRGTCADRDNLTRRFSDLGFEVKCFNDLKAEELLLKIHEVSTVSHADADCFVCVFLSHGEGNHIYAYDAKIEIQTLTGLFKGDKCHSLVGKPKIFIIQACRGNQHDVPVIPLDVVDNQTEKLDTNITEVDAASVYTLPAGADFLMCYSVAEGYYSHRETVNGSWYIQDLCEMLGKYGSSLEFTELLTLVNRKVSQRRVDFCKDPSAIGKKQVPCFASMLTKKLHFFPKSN

[14] = target: FAD-linked sulfhydryl oxidase ALR (Homo sapiens, UniProt P55789); test: ALR-catalysed DTT oxidation blockers – biochemical, H2O2 detection, luminescence, cherry-pick, dose response (AID 493248)
[15] = target: T4, Carboxy-terminal domain RNA polymerase II polypeptide A small phosphatase 1 (Homo sapiens, UniProt Q9GZU7); test: CTDSP1 inhibitors, concentration-response, biochemical, absorbance readout, ultra-high-throughput screen actives (AID 540297); type: functional
T4 sequence (Q9GZU7 whole entry): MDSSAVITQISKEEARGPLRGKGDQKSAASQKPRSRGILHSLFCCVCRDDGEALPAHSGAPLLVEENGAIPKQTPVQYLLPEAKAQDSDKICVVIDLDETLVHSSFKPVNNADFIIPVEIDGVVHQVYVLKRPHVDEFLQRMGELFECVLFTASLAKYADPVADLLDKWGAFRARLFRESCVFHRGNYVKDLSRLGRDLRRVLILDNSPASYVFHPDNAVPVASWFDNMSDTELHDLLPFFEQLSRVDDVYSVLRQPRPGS

[16] = Luminescence Cell-Based Dose Response HTS to Identify Inhibitors of 5'UTR Stem-Loop Driven Prion Protein mRNA Translation in H4 Neuroglioblastoma Cells. [Related pubchem assays: 1827 (Project Summary), 1813 (Primary HTS)]; type: functional
[17] = loss of viability in HepG2 cells – cell-based, CellTiter-Glo, cherry-picked, cytotoxicity control for Shn3 inhibitor project, dose response (AID 624134); type: functional
[18] = alpha-synuclein stem-loop luciferase translation blockers – H4 neuroglioma cells, luminescence, confirmation (AID 1988); type: functional, cell-based
[19] = luciferase reporter signal suppression in cells – H4 neuroglioma cells, luminescence, dose response (AID 1990); type: functional, cell-based
[20] = reduction of Shn3 3'UTR-driven luciferase in osteoblasts – cell-based, Clone20 osteoblasts, firefly luciferase, cherry-picked, dose response (AID 624132); type: functional;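 note: firefly luciferase luminescence from reporter carrying the Shn3 3'UTR in osteoblasts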
[21] = target: NAD-dependent protein deacylase sirtuin-5, mitochondrial (Homo sapiens, UniProt Q9NXA8); test: sirtuin-5 deacylation blockers, concentration series – biochemical, fluorescence imaging, cherry-pick, set 5, dose response (AID 720591);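 note: desuccinylation of succinyl peptide AMC substrate read as fluorescence after trypsin release; potency of inhibitors that lower fluorescence and may act on trypsin instead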
Estrogen receptor beta [22] = target: T5, Estrogen receptor beta (Homo sapiens, UniProt Q92731);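 note: recombinant ER-beta bound to coactivator SRC1 peptide in presence of estradiol agonist; inhibitors block coactivator peptide binding and lower the FRET signal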
Estrogen receptor = target: T6, Estrogen receptor (Homo sapiens, UniProt P03372);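 note: potency for inhibiting coactivator peptide recruitment to the receptor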
T6 sequence (P03372 whole entry): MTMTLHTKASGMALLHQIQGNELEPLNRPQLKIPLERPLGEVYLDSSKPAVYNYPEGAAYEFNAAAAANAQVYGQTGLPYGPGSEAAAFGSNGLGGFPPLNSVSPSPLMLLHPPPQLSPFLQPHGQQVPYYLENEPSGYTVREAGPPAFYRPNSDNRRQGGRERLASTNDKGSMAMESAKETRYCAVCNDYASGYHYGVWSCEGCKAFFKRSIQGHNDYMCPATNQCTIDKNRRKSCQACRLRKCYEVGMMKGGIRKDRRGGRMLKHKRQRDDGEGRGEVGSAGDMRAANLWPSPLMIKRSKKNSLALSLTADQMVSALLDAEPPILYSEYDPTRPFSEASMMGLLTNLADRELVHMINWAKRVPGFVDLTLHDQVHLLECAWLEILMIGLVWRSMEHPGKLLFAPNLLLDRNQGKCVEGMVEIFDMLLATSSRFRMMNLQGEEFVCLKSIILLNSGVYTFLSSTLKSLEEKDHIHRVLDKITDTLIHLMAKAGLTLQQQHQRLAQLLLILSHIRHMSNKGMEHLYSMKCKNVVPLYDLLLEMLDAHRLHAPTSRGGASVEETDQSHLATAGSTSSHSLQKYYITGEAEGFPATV

Estrogen receptor beta [23] = target: T5, Estrogen receptor beta; test: blockers of SRC-3 recruitment to ERβ – biochemical, ELISA, streptavidin-HRP readout, orthogonal assay, confirmation (AID 1060)

NAD-dependent protein deacylase sirtuin-5, mitochondrial, sequence (Q9NXA8 whole entry): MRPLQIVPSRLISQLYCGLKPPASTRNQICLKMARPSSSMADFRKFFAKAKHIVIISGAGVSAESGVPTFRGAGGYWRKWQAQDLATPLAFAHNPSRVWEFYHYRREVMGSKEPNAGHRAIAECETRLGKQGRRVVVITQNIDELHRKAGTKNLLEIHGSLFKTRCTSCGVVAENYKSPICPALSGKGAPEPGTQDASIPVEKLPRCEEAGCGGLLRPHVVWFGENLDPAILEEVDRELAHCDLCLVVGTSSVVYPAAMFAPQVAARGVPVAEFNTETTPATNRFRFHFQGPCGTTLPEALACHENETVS
Cytochrome P450 2C9, sequence (P11712 whole entry): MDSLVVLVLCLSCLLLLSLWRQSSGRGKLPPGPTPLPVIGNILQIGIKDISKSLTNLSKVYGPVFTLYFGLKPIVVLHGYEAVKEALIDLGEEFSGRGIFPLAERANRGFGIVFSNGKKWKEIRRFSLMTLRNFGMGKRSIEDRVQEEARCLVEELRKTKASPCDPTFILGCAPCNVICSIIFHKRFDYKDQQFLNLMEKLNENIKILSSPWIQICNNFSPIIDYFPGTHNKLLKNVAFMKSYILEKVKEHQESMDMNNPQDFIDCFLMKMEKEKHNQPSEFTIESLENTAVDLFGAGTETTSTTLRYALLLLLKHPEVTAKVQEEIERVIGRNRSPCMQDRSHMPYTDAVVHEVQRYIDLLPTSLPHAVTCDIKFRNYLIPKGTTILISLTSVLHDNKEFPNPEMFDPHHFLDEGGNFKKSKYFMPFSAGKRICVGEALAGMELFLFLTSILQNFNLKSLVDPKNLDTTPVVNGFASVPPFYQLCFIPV
T5 sequence (Q92731 whole entry): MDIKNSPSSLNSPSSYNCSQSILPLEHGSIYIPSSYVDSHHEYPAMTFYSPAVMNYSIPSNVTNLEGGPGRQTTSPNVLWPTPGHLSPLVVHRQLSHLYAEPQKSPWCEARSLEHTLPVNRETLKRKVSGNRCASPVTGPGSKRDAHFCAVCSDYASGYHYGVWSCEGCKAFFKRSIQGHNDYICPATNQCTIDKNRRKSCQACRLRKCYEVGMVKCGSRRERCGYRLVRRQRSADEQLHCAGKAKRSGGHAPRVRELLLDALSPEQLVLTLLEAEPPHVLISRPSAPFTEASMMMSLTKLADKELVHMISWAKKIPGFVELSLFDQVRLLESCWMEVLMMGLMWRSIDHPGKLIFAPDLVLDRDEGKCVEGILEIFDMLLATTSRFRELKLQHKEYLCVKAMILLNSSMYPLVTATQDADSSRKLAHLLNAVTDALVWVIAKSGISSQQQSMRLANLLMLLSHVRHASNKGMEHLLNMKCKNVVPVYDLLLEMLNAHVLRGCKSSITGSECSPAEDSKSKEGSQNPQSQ
Protein-tyrosine kinase 2-beta, sequence (Q14289 whole entry): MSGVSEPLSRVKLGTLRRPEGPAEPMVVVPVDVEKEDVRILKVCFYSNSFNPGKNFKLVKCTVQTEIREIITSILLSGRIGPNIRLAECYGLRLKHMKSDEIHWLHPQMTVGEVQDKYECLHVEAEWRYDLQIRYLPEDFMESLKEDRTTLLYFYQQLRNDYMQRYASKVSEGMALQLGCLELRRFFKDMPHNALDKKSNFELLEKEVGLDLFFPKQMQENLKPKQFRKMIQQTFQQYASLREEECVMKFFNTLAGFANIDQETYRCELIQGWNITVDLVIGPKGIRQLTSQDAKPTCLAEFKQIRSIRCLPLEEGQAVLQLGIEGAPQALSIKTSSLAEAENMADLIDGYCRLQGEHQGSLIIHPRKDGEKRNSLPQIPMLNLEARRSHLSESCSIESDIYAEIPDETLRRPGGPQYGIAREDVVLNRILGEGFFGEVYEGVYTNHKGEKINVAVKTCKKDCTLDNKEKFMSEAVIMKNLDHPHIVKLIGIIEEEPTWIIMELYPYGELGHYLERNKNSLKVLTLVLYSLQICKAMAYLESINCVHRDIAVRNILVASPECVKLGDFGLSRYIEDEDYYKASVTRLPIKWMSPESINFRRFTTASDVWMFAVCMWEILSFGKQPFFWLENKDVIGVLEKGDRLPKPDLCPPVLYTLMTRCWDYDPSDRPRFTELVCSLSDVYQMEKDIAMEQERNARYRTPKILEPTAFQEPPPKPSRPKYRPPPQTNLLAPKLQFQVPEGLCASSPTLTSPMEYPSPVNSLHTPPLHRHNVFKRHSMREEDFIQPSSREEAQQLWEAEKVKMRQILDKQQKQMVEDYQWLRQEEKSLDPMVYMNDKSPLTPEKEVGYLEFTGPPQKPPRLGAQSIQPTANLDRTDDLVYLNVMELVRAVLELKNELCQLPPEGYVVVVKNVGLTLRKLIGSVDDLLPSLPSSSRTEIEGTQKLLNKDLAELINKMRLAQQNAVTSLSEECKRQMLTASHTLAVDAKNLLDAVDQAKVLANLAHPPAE
Cytochrome P450 3A4, sequence (P08684 whole entry): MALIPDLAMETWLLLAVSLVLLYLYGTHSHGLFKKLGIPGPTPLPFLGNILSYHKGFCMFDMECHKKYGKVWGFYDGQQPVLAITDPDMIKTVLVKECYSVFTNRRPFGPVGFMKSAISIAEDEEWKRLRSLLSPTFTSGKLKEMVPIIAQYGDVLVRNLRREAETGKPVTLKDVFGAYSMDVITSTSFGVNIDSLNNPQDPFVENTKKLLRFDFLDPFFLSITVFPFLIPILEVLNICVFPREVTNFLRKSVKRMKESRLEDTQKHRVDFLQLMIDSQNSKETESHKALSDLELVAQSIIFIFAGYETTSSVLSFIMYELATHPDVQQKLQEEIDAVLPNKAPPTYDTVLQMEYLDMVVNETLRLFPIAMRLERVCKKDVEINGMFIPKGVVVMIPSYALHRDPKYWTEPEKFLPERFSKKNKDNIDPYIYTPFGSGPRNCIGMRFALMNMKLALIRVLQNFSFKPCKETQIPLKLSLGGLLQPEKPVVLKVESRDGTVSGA
FAD-linked sulfhydryl oxidase ALR, sequence (P55789 whole entry, the tested form may be a part): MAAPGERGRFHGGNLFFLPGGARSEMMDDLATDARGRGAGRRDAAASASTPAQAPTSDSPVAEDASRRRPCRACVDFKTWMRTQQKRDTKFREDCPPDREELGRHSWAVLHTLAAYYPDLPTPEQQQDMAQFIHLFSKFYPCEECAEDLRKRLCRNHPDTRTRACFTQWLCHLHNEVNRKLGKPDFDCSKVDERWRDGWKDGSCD

SMILES: Cc1cc(SCC(=O)c2ccccc2)n2ncc(-c3ccccc3)c2n1
- CC50 [1]: 25.8 µM (active)

SMILES: c1ccc2c3c([nH]c2c1)-c1n[nH]cc1CC3
- IC50 [2]: 26.7 µM (inactive)
- EC50 (H4): > 120 µM (not active)
- EC50 [3]: > 120 µM (not active)
- AC50 [4]: 3.79 µM (active)
- EC50 [5]: 18.7 µM (active)
- IC50 [6]: 10.5 µM (not active)
- IC50 [7]: 52.1 µM (inactive)
- IC50 [8]: 83.4 µM (inactive)

SMILES: CCC(C)C(NC(N)=O)C(=O)Nc1ccc(OCc2ccccc2)cc1 (stereo not given)
- CC50 [1]: > 40 µM (active)

SMILES: Cc1cc(C)[n+]2ncn(C)c2n1
- IC50 [9]: > 50 µM (not active)

SMILES: CC1CCC2C(=O)N3C(CCC(C)[C@H]3c3ccccc3Br)C(=O)N2C1c1ccccc1Br (stereo not given in full)
- AC50 (Cytochrome P450 3A4): 1.26 µM (inconclusive)
- AC50 (Cytochrome P450 2C9): 6.31 µM (inconclusive)

SMILES: CCN(CC)c1ccc(C(=O)n2cnc3ccccc32)cc1
- CC50 [1]: > 40 µM (active)

SMILES: COc1ccc(CNc2cc(NCCCO)c([N+](=O)[O-])c3nonc23)cc1
- IC50 [9]: > 50 µM (not active)

SMILES: CC(C)[C@@]1(NC(=O)[C@@H]2C=C3c4cccc5[nH]cc(c45)C[C@@H]3N(C)C2)O[C@]2(O)[C@H]3CCCN3C(=O)[C@H](Cc3ccccc3)N2C1=O
- AC50 (Cytochrome P450 2C9): 10 µM (inconclusive)

SMILES: COc1cc(/C=C(\C#N)c2nc3ccccc3[nH]2)c([N+](=O)[O-])cc1OCc1ccccc1
- IC50 [10]: > 100 µM (active)

SMILES: COc1ccc(-c2ccc3c(N)c(C(=O)c4ccc(OC)c(OC)c4)sc3n2)cc1
- IC50 [6]: 4.28 µM (active)

SMILES: C[C@H]1CN([C@@H](C)CO)S(=O)(=O)c2ccc(-c3ccccc3)cc2O[C@@H]1CN(C)Cc1cccc(F)c1
- AC50 [11]: 7.93 µM (active)

SMILES: CC(=O)c1c(C)[nH]c(C(=O)Nc2ccc(C)c(C)c2)c1C
- EC50 [12]: > 38 µM (not active)
- EC50 [13]: 72.3 µM (active)
- IC50 [10]: > 100 µM (active)

SMILES: C=CCC1C=CC(Oc2ccc(F)cc2C)C(CO)O1 (stereo not given)
- AC50 (Cytochrome P450 2C9): 3.98 µM (inconclusive)

SMILES: CSc1ccc(NC(=O)Nc2ccc(C(=O)NCC(=O)O)cc2)cc1
- AC50 (Caspase-6): 18.4 µM (active)
- AC50 [14]: 2.47 µM (active)
- IC50 [15]: 3.17 µM (active)

SMILES: c1ccc(Nc2ccccn2)cc1
- IC50 [10]: > 100 µM (active)

SMILES: CC(C)CC(NC(=O)c1ccc(Cl)cc1)C(=O)OCC(=O)c1ccc2c(c1)NC(=O)CO2 (stereo not given)
- EC50 [16]: 2.69 µM (active)
- AC50 [11]: 6.45 µM (active)
- AC50 [17]: 15.5 µM (active)
- EC50 [18]: 4.38 µM (active)
- EC50 [19]: 6.2 µM (active)
- AC50 [20]: 4.01 µM (active)

SMILES: CC(C(=O)Nc1ccc(S(=O)(=O)N2CCOCC2)cc1)N1CCN(c2ccccn2)CC1 (stereo not given)
- AC50 [21]: > 30 µM (inactive)

SMILES: O=C(COC(=O)c1cccc(S(=O)(=O)N2CCc3ccccc3C2)c1)NCc1ccco1
- IC50 (Estrogen receptor beta [22]): > 50 µM (not active)
- IC50 (Estrogen receptor): 25 µM (active)
- IC50 (Estrogen receptor beta [23]): 0.0242 µM (not active)

SMILES: COc1ccc(-n2c(SCC#N)nnc2-c2cccnc2)cc1
- AC50 [11]: 16.7 µM (active)

SMILES: COc1ccc(NS(=O)(=O)c2cccc(C(=O)N3CCCC(C)C3)c2)cc1 (stereo not given)
- AC50 [21]: 28.4 µM (active)

SMILES: O=C(O)c1ccc(Nc2nc(-c3ccccc3)nc3ccccc23)cc1
- AC50 [21]: 17.9 µM (active)
